In PMC9847679, “The anti-breast cancer stem cell properties of gold(I)-non-steroidal anti-inflammatory drug complexes” (Chemical Science, 2022):

Key:
[1] = tested on: murine 4T1 triple-negative breast cancer model; experiment: Antitumour efficacy in murine 4T1 triple-negative breast cancer model; type: in vivo, BALB/c mice
Method: Mice. Female, 5-week-old BALB/c mice were purchased from Charles River Laboratories (Wilmington, MA). All mice were quarantined for one week before use and kept in micro - isolator cages (four mice per cage) in a temperature - and humidity-controlled environment a s per the Division of Laboratory Animal Research (DLAR) of University of Kentucky. All mice were maintained in a pathogen-free environment under the care of DLAR of University of Kentucky. Our study was performed in compliance with the NIH guidelines (NIH Publication No. 85-23 Rev. 1985) for the care and use of laboratory animals and all experimental procedures were monitored and approved by the Institutional Animal Care and Use Committee (IACUC) of University of Kentucky (USA).
In vivo studies with 1. Ten female BALB/c mice (5 weeks) were received from Charles River Laboratories (Wilmington, MA). […]
being implanted with 4T1 cells (1 million) subcutaneously on their right flank. Three days post-implantation, the mice were administered with 10 mg/kg of 1 intraperitoneally (IP), 0.1 mL/mouse formulated as 1% DMSO, 10% Kolliphor, and 89% PBS. The control group was injected with a PBS solution containing 1% DMSO and […]. The injection of 1, and […]
tumour-size and body-weight measurements were performed three days a week, and the mice were euthanised after 16 days (n = 5 for 1 and n = 5 for vehicle control). […]
Hematoxylin and eosin staining. The mice used in the in vivo comparative experiment of 1 and the vehicle control were sacrificed at day 16 post tumo ur cells (4T1) injection. The tissues (liver, kidney, and tumour) were fixed in freshly prepared paraformaldehyde (4% in PBS) for 24 h and processed for paraffin sectioning. Tissue sections of 5 µm were stained with hematoxylin and eosin and used for histological examination. A total of 3 sections per tissue (spanning the full depth of the tissue) were examined and photographed using a Nikon

HMLER-shEcad cells = experiment: Mammosphere formation assay; type: cell-based, human; settings: at IC20 value, single cell suspensions, 5 days incubation
Method: media. The final concentration of DMSO in each well was ≤1 %. After 72 h, 20 μl of MTT (4 mg mL-1 in PBS) was added to each well and the plates incubated for an additional 4 h at 37 °C. The media/MTT mixture was eliminated and DMSO (100 μl per well) was added to dissolve the formazan precipitates. The optical density was measured at 550 nm using a 96-well multiscanner autoreader. Absorbance values were normalised to (DMSO-containing) control wells and plotted as concentration of test compound versus % cell viability. IC50 values were interpolated from the resulting dose dependent curves. The reported IC50 values are the average of three independent experiments (n = 18).
Tumorsphere Formation and Viability Assay. […] Mammospheres treated with 1-3, 5-fluorouracil, capecitabine, cisplatin, carboplatin, and salinomycin (at their respective IC20 values, 5 days) were counted and imaged using an inverted microscope. The viability of the mammospheres was determined by addition of a resazurin-based reagent, TOX8 (Sigma). After incubation for 16 h, the fluorescence of the solutions was read at 590 nm (λex = 560 nm). […] Fluorescence values were normalised to DMSO-containing controls and plotted as concentration of test compound versus % mammospheres viability. […]
Cellular Uptake. […] The number of cells was counted at this stage, using a haemocytometer. […] Gold levels are expressed as mass of Au (ng) per million cells. […]

[2] = 10 mg kg−1 intraperitoneally three times a week, 16 days, vs vehicle
[3] = day 16, compared to control group

Which results are given for `COc1ccc2c(c1)c(CC(=O)[O][Au][PH](c1ccccc1)(c1ccccc1)c1ccccc1)c(C)n2C(=O)c1ccc(Cl)cc1` [complex 1]?
body weight [1, 2]: maintained their body weight; tumour growth [1, 2]: significant tumour growth inhibition; cellularity in kidney or liver tissue (H&E histology) [1, 3]: no alteration to cellularity; cellularity in tumour tissue (H&E histology) [1, 3]: Reduced cellularity; number and size of mammospheres formed (HMLER-shEcad cells): greatest inhibitory effect
